Assays:
[1] = test system: Corynebacterium ammoniagenes AGRI45-11 (VKPM B-8009); type: cell-based; conditions: for Effect on growth of the XMP producer strain: in high concentration, strain AGRI45-11
Description: (§1) Corynebacterium ammoniagenes AGRI45-11 (VKPM B-8009) was treated with 50 μg/ml of NTG for 20 minutes. Then cells were plated on PYM medium having the composition (g/L): peptone—10.0, yeast extract—10.0, meat extract—5.0, NaCl—2.5, agar—20.0, and containing 40 g/L, or 50 g/L, or 60 g/L glycine. The inoculated plates were incubated at 30° C. for 5 days.
Corynebacterium ammoniagenes AGRI45-11 (VKPM B-8009) was treated with NTG, and cells were plated on the PYM medium as in Example 1, containing 45 μg/ml, or 50 μg/ml, or 55 μg/ml, or 60 μg/ml polymyxin. The inoculated plates were incubated at 30° C. for 5 days.
The parental strain Corynebacterium ammoniagenes AGRI45-11 (VKPM B-8009) was streaked onto PYM medium of Example 1, containing 5, 15, 30 or 50 μg/ml of rifampicin instead of glycine and inoculated plates were incubated at 34° C. for 3 days. The mutants resistant to rifampicin was selected from among spontaneously appeared colonies.
A series of mutants resistant to 50 or 100 μg/ml oligomycin was selected from the strain Corynebacterium anmoniagenes AGRI45-11 (VKPM B-8009) using the procedure, described in the Example 1, but oligomycin was used instead of glycine.
Corynebacterium ammoniagenes AGRI45-11 (VKPM B-8009) was treated with NTG, and cells were plated on PYM medium as in Example 1, containing 2, 4 or 6 μg/ml of CCCP instead of glycine. The inoculated plates were incubated at 30° C. for 5 days. […] This strain and the parent strain Corynebacterium ammoniagenes AGRI45-11 (VKPM B-8009) were each cultivated at 32° C. for 20 h with aeration in a seed medium as in the Example 1. Then 0.3 ml of the obtained culture was inoculated into 3 ml of the fermentation medium of the Example 1, in 20×200 mm test tubes, and cultivated at 32° C. for 72 hours with a rotary shaker. After the cultivation, an accumulated amount of XMP in the medium was determined by known method.
Corynebacterium ammoniagenes AGRI45-11 (VKPM B-8009) was treated with NTG as in Example 1, aliquots were introduced into 20×200 mm test tubes and incubated at 32° C. for 20 h with shaking in minimal medium having the following composition (see below) with a rotary shaker. Then the cells were collected and plated on the minimal medium agar and containing several combinations of the inhibitors:
(§2) The mutants resistant to the analogue were obtained using the procedure described in Example 6, except for the only combinations of the inhibitors was applied: DL-methionine sulfone-10 mg/ml +DL-methionine-20 mg/ml.

[2] = test system: Corynebacterium ammoniagenes AGRI11-51 (VKPM B-8005); assay: Growth of the methionine sulfoxide-resistant mutant with DL-methionine sulfoxide + DL-methionine; type: cell-based; conditions: mutant strain AGRI11-51
Description: Then the cells were collected and plated on the minimal medium agar and containing several combinations of the inhibitors:
Mutants which appeared after 4 to 8 days incubation were picked up and tested for their XMP productivity. Among them the strain Corynebacterium ammoniagenes AGRI11-51 (VKPM B-8005) was selected. This strain and the parent strain Corynebacterium anmoniagenes AGRI45-11 (VKPM B-8009) were each cultivated at 32° C. for 20 h with aeration in a seed medium as in the Example 1. Then 0.3 ml of the obtained culture was inoculated into 3 ml of the fermentation medium of the Example 1, in 20×200 mm test tubes, and cultivated at 32° C. for 72 hours with a rotary shaker. After the cultivation, an accumulated amount of XMP in the medium was determined by known method.

[3] = test system: Corynebacterium ammoniagenes AGRI67-52 (VKPM B-8004); assay: Growth of the oligomycin-resistant mutant in the presence of oligomycin; type: cell-based; conditions: mutant strain AGRI67-52
Description: A series of mutants resistant to 50 or 100 μg/ml oligomycin was selected from the strain Corynebacterium anmoniagenes AGRI45-11 (VKPM B-8009) using the procedure, described in the Example 1, but oligomycin was used instead of glycine. […] The best mutant, strain Corynebacterium ammoniagenes AGRI67-52 (VKPM B-8004) when tested in parallel as in Example 1 accumulated about 22 % more XMP than the parental strain Corynebacterium ammoniagenes AGRI45-11 (VKPM B-8009) (Table 4 ).

[4] = test system: Corynebacterium ammoniagenes AGRI47-51 (VKPM B-8007); assay: Growth of the methionine sulfone-resistant mutant with DL-methionine sulfone + DL-methionine; type: cell-based; conditions: mutant strain AGRI47-51
Description: as §2
Among the mutants which appeared after 4 to 8 days incubation the strain Corynebacterium ammoniagenes AGRI47-51 (VKPM B-8007) was selected. This strain and the parent strain Corynebacterium ammoniagenes AGRI45-11 (VKPM B-8009) were each cultivated at 32° C. for 20 h with aeration in a seed medium as in the Example 1. Then 0.3 ml of the obtained culture was inoculated into 3 ml of the fermentation medium of the Example 1, in 20×200 mm test tubes, and cultivated at 32° C. for 72 hours with a rotary shaker.

[5] = test system: Corynebacterium ammoniagenes AGRI97-52 (VKPM B-8008); assay: Growth of the CCCP-resistant mutant with CCCP; type: cell-based; conditions: mutant strain AGRI97-52
[6] = test system: Corynebacterium ammoniagenes AGRI10-52 (VKPM B-8006); conditions: mutant strain AGRI10-52
Description: as §1

[7] = test system: Corynebacterium ammoniagenes AGRI93-38 (VKPM B-8003); assay: Growth of the rifampicin-resistant mutant with rifampicin; type: cell-based; conditions: mutant strain AGRI93-38
Description: The parental strain Corynebacterium ammoniagenes AGRI45-11 (VKPM B-8009) was streaked onto PYM medium of Example 1, containing 5, 15, 30 or 50 μg/ml of rifampicin instead of glycine and inoculated plates were incubated at 34° C. for 3 days. The mutants resistant to rifampicin was selected from among spontaneously appeared colonies. Among the mutants the most productive strain Corynebacterium ammoniagenes AGRI93-38 (VKPM B-8003) was selected.

[8] = test system: Corynebacterium ammoniagenes AGRI101-51 (VKPM B-8010); assay: Growth of the polymyxin-resistant mutant in the presence of polymyxin; type: cell-based; conditions: mutant strain AGRI 101-51
[9] = test system: Gram-positive bacterium Corynebacterium ammoniagenes; assay: Growth inhibition of Corynebacterium ammoniagenes by polymyxin B; type: cell-based; conditions: high concentrations
From the text: Polymyxin B is a polypeptide antibiotics effective against Gram-negative bacteria. The cell membrane of the bacteria is considered to be the target of the antibiotic. […] The mutations conferring resistance to polymyxin B may affect cytoplasmic membrane and mimic a stress condition, inducing XMP efflux transporter. Therefore the mutants resistant to growth inhibition by the drug were selected.

Which “Growth with 10 mg/ml DL-methionine sulfoxide + 20 mg/ml DL-methionine” value ([1]; 10 mg/ml DL-methionine sulfoxide + 20 mg/ml DL-methionine, parent strain AGRI45-11) does the source give for `C[S+]([O-])CCC(N)C(=O)O` (racemic) [DL-methionine sulfoxide] here?
Its value is “−”.

And the “Effect on growth of the XMP producer strain” value (from here on “Effect on growth”) [1]?
The value was “inhibited the growth”.

What about the “Growth with 10 mg/ml DL-methionine sulfoxide + 20 mg/ml DL-methionine” value [2] of the same molecule?
The value was “+”.

Which results are given for `CC[C@H]1/C=C/C=C/C[C@@H](C)[C@H](O)[C@@](C)(O)C(=O)[C@@H](C)[C@H](O)[C@@H](C)C(=O)[C@@H](C)[C@H](O)[C@@H](C)/C=C/C(=O)O[C@@H]2[C@H](C)[C@H](CC1)O[C@]1(CC[C@H](C)[C@H](C[C@@H](C)O)O1)[C@H]2C` [oligomycin]?
Growth in the presence of 100 μg/ml oligomycin [3]: +; Growth in the presence of 100 μg/ml oligomycin ([1]; 100 μg/ml oligomycin, parent strain AGRI45-11): −

How did the “Growth with 10 mg/ml DL-methionine sulfone + 20 mg/ml DL-methionine” value ([1]; 10 mg/ml DL-methionine sulfone + 20 mg/ml DL-methionine, parent strain AGRI45-11) turn out when `CS(=O)(=O)CCC(N)C(=O)O` (racemic) [DL-methionine sulfone] was run?
The value was “−”.

What about the “Effect on growth” value [1] of the same molecule?
Its value is “inhibited the growth”.

And the “Growth with 10 mg/ml DL-methionine sulfone + 20 mg/ml DL-methionine” value [4]?
The value was “+”.

How did the “Growth with 4 μg/ml CCCP” value [5] turn out when `N#CC(C#N)=NNc1cccc(Cl)c1` [CCCP, Carbonyl cyanide m-chlorophenyl hydrazone] was run?
The value was “+”.

And the “Growth with 4 μg/ml CCCP” value ([1]; 4 μg/ml CCCP, parent strain AGRI45-11)?
Its value is “−”.

`NCC(=O)O` [glycine] was tested. Which “Growth in the presence of 6% glycine” value ([1]; 6% glycine, parent strain AGRI45-11) did it give?
The value was “−”.

What about the “Growth in the presence of 6% glycine” value [6] of the same molecule?
Its value is “+”.

Which “Effect on growth” value [1] does the source give for `CSCCC(N)C(=O)O` (racemic) [DL-methionine] here?
The value was “inhibited the growth”.

`CO[C@H]1/C=C/O[C@@]2(C)Oc3c(C)c(O)c4c(O)c(c(/C=N/N5CCN(C)CC5)c(O)c4c3C2=O)NC(=O)/C(C)=C\C=C\[C@H](C)[C@H](O)[C@@H](C)[C@@H](O)[C@@H](C)[C@H](OC(C)=O)[C@@H]1C` [rifampicin] was tested. Which “Growth with 15 μg/ml rifampicin” value ([1]; 15 μg/ml rifampicin, parent strain AGRI45-11) did it give?
Its value is “−”.

What about the “Growth with 15 μg/ml rifampicin” value [7] of the same molecule?
Its value is “+”.

For Polymyxin B, which “Growth in the presence of 45 μg/ml polymyxin” value [8] is on record?
Its value is “+”.

What about the “Concentration that inhibited the growth” value [9] of the same molecule?
Its value is 40 to 50 µg/mL.

What about the “Growth in the presence of 45 μg/ml polymyxin” value ([1]; 45 μg/ml polymyxin, parent strain AGRI45-11) of the same molecule?
The value was “−”.
